In patent US20120015925A1, “NOVEL BENZOTHIAZEPINE AND BENZOTHIEPINE COMPOUNDS” (ASAHI KASEI PHARMA CORPORATION, priority 2004, published 2012):

Assays:
rats dosed cholic acid = assay: Lowering effect on bile acid concentrations in portal vein blood in rats dosed cholic acid; type: in vivo, rat
Experimental: In the present Test Example, a lowering effect on bile acid concentrations in portal vein blood in rats dosed cholic acid was evaluated according to the method described in Jpn. Pharmacol. Ther., Vol. 24 Supplement, 1996, 103(S-577)-110(S-584).
That is, SD (IGS) strain male rats at 7 to 9 weeks of age were fasted one day before the administration date. […] The blood was collected from the portal vein 2 hours after the forced oral administration, and a total bile acid value in serum was measured to examine the effect of the test compound (n=6). As a control, another group (n=6) merely received cholic acid (200 mg/kg), to which the same procedure was applied. The cholic acid value was measured using the commercially available kit (brand name: Total Bile Acid-Test Wako, supplied form Wako Pure Chemical Industries). Defining the value in the control group to which no test compound had been administered as being 100%, a reduction rate (%) of the bile acid value when a certain amount of the test compound had been administered was calculated.

Caco-2 cell = assay: Gastrointestinal toxicity: cytotoxicity against Caco-2 cell (LDH activity); type: cell-based, human; settings: for CELL TOXICITY AGAINST Caco2 3 μM / CELL TOXICITY AGAINST Caco2 10 μM / CELL TOXICITY AGAINST Caco2 30 μM: 2 hours, LDH activity in medium relative to cell lysis agent = 100%
Experimental: That is, 10,000 cells/well of Caco-2 cells (purchased from ATCC) were seeded in a 96-well plate [MEM-E medium, 10% FBS (Fetal Bovine Serum), 1% NEAA (Non Essential Amino Acid) solution, supplied from Gibco]. After culturing for 48 hours, the test compound diluted with the medium was added to each well. After 2 hours, 50 μL of the medium was collected, and an LDH activity in the medium was measured using an LDH activity measurement kit (CytoTox96 Non-Radioactive Cytotoxicity Assay, supplied from Promega). Defining the LDH activity of the Caco-2 cells treated with a cell lysis agent as being 100%, the relative activity was calculated as a index of the cytotoxicity.

human IBAT = molecular target: T1, human IBAT (Homo sapiens, UniProt Q12908); assay: In vitro assay using Cos 7 cells, transiently expressed human IBAT; type: cell-based; settings: [3H]-taurocholate 8 μM uptake, 37° C., 60 minutes
T1 sequence (Q12908 1-348): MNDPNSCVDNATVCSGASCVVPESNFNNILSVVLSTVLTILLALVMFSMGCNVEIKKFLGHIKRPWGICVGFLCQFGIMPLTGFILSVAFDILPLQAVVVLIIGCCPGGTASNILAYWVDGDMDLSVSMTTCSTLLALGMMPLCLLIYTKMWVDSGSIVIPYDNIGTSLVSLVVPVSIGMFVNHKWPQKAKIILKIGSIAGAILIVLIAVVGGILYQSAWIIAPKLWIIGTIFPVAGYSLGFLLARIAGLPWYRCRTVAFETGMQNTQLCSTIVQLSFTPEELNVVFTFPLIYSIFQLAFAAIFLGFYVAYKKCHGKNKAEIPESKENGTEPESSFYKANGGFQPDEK
Experimental: In the present Test Example, an in vitro assay of compounds using Cos 7 cells as to inhibitory activity on transiently expressed human IBAT or rat IBAT transporter was performed according to the method described in Am. J. Physiol., 274, G157-169.
That is, […] cells/well of Cos 7 cells were seeded in a 24-well plate, and after one day, the cells were transfected with 0.3 μg/well of cDNA of human IBAT or rat IBAT using FuGENE6 (supplied from Roche). After culturing for one day after the transfection, the cells were washed once with the assay buffer, i.e., Hanks buffer containing 25 mM glucose and 10 mM HEPES (pH 7.4). The assay buffer was then replaced with the assay buffer containing the test compound. [^3H]-Taurocholate at a final concentration of 8 μM was added thereto and incubated at 37° C. for 60 minutes so that [^3H]-taurocholate was taken into Cos 7 cells by the action of human IBAT or rat IBAT. The cells were washed twice with the assay buffer containing 1 mM taurocholate, and subsequently lysed with 0.2 M NaOH to stop the reaction. The cell lysate was added to 4 mL of liquid scintillation cocktail, which was then thoroughly vortexed. Then the radioactivity was measured using the liquid scintillation counter.

[1] = 0.1 mg/kg oral with cholic acid 200 mg/kg, portal vein serum total bile acid 2 hours after, control = 100%, surfactant HCO-60 (##)

Structure (SMILES)	IC50 (human IBAT)	CELL TOXICITY AGAINST Caco2 3 μM (Caco-2 cell)	CELL TOXICITY AGAINST Caco2 10 μM (Caco-2 cell)	CELL TOXICITY AGAINST Caco2 30 μM (Caco-2 cell)	further results
CCCCC1(CCCC)CS(=O)(=O)c2ccc(N(C)C)cc2C(c2cccc(NC(=S)Nc3ccc(C[N+](C)(C)CCOCCO)cc3)c2)N1.[Br-] (racemic) [EXAMPLE 3475]	–	–	–	–	BILE ACID REDUCTION RATE (%) IN RAT MODEL WITH CHOLIC ACID LOADING (rats dosed cholic acid; [1]): 19%
CCCCCC1(CCCCC)CS(=O)(=O)c2ccc(N(C)C)cc2C(c2cccc(NC(=S)Nc3ccc(C[N+]45CCC(CC4)CC5)cc3)c2)N1.[Br-] (racemic) [EXAMPLE 5735]	–	<1%	<1%	<1%	–
CCCCCC1(CCCCC)CS(=O)(=O)c2ccc(N(C)C)cc2C(c2cccc(NC(=S)Nc3ccc(CC[N+](C)(C)Cc4ccccc4)cc3)c2)N1.[Br-] (racemic) [EXAMPLE 5856]	–	<1%	<1%	<1%	–
CCCCCC1(CCCCC)CS(=O)(=O)c2ccc(N(C)C)cc2C(c2cccc(NC(=S)Nc3ccc(CC[N+]45CCC(CC4)CC5)cc3)c2)N1.[Br-] (racemic) [EXAMPLE 5857]	–	<1%	<1%	<1%	–
CCCCC1(CCCC)CS(=O)(=O)c2ccc(N(C)C)cc2C(c2ccc(OCc3ccc(C[N+]45CCN(CC4)CC5)cc3)cc2)N1.[Cl-] (centres unmarked) [Comparative Example, 1-{4-[4-(3,3-dibutyl-7-dimethylamino-1,1-dioxo-2,3,4,5-tetrahydro-1,4-benzothiazepine-5-yl)phenoxymethyl]benzyl}-4-aza-1-azoniabicyclo[2.2.2]octane chloride, reference compound]	–	–	–	–	cytotoxicity to the Caco-2 cell (Caco-2 cell; LDH activity in medium after 2 hours): exhibited the cytotoxicity to the small intestine epithelial cell line at low concentrations
CCCCC1(CCCC)CS(=O)(=O)c2ccc(N(C)C)cc2C(c2cccc(NC(=S)NCCCC[N+](C)(C)Cc3ccccc3)c2)N1.[Br-] (centres unmarked) [EXAMPLE 801]	–	–	–	–	BILE ACID REDUCTION RATE (%) IN RAT MODEL WITH CHOLIC ACID LOADING (rats dosed cholic acid; 0.1 mg/kg oral, surfactant HCO-60 0.1%, cholic acid 200 mg/kg, portal vein blood 2 hours after administration): 33%
CCCCC1(CCCC)CS(=O)(=O)c2ccc(N(C)C)cc2C(c2cccc(NC(=S)Nc3ccc(C[N+]45CCN(CC4)CC5)cc3)c2)N1.[Br-] (centres unmarked) [EXAMPLE 3705]	0.054 µM	<1%	<1%	<1%	–
CCCCC1(CCCC)CS(=O)(=O)c2ccc(N(C)C)cc2C(c2cccc(NC(=S)Nc3ccc(C[n+]4ccc(C)cc4)cc3)c2)N1.[Br-] (centres unmarked) [EXAMPLE 3709]	0.049 µM	<1%	<1%	<1%	–
CCCCc1ccc[n+](Cc2ccc(NC(=S)Nc3cccc(C4NC(CCCC)(CCCC)CS(=O)(=O)c5ccc(N(C)C)cc54)c3)cc2)c1.[Br-] (centres unmarked) [EXAMPLE 3723]	0.025 µM	<1%	<1%	<1%	–
CCCCC1(CCCC)CS(=O)(=O)c2ccc(N(C)C)cc2C(c2cccc(NC(=S)Nc3ccccc3C[N+]34CCC(CC3)CC4)c2)N1.[Br-] (centres unmarked) [EXAMPLE 4905]	–	–	–	–	BILE ACID REDUCTION RATE (%) IN RAT MODEL WITH CHOLIC ACID LOADING (rats dosed cholic acid; [1]): 28%
CCCCCC1(CCCCC)CS(=O)(=O)c2ccc(N(C)C)cc2C(c2cccc(NC(=S)Nc3ccc(C[N+](C)(C)Cc4ccccc4)cc3)c2)N1.[Br-] (centres unmarked) [EXAMPLE 5480]	–	<1%	<1%	<1%	–
CCCCC1(CCCC)CS(=O)(=O)c2ccc(N(C)C)cc2C(c2cccc(NC(=S)NCCC[N+]34CCC(CC3)CC4)c2)N1.[Br-] (centres unmarked) [Example 9, 1-(3-{3-[3-(3,3-dibutyl-7-dimethylamino-1,1-dioxo-2,3,4,5-tetrahydro-1,4-benzothiazepine-5-yl)phenyl]thioureido}propyl)-1-azoniabicyclo[2.2.2]octane bromide]	–	–	–	–	BILE ACID REDUCTION RATE (%) IN RAT MODEL WITH CHOLIC ACID LOADING (rats dosed cholic acid; 0.1 mg/kg oral, surfactant Tween 20 0.05%, cholic acid 200 mg/kg, portal vein blood 2 hours after administration): 13%
CCCCC1(CCCC)CS(=O)(=O)c2ccc(N(C)C)cc2C(c2ccc(NC(=S)Nc3ccc(C[N+](C)(C)Cc4ccccc4)cc3)cc2)N1.[Br-] (centres unmarked) [Example 5405, Benzyl-(4-{3-[4-(3,3-dibutyl-7-dimethylamino-1,1-dioxo-2,3,4,5-tetrahydro-1,4-benzothiazepine-5-yl)phenyl]thioureido}benzyl)dimethylammonium bromide]	–	–	–	–	BILE ACID REDUCTION RATE (%) IN RAT MODEL WITH CHOLIC ACID LOADING (rats dosed cholic acid; po, 0.1 mg/kg, 2 h): 16%

More lines, main results first:

IC50 (human IBAT)	Structure (SMILES)	CELL TOXICITY AGAINST Caco2 3 μM (Caco-2 cell)	CELL TOXICITY AGAINST Caco2 10 μM (Caco-2 cell)	CELL TOXICITY AGAINST Caco2 30 μM (Caco-2 cell)	further results
0.028 µM	CCCCC1(CCCC)CS(=O)(=O)c2ccc(N(C)C)cc2C(c2cccc(NC(=S)Nc3ccc(C[N+]45CCC(c6ccccc6)(CC4)CC5)cc3C)c2)N1.[Br-] (centres unmarked) [EXAMPLE P340]	–	<1%	<1%	–
0.019 µM	CCCCC1(CCCC)CS(=O)(=O)c2ccc(N(C)C)cc2C(c2cccc(NC(=S)Nc3ccc(C[N+]45CCC(c6ccccc6)(CC4)CC5)cc3Cl)c2)N1.[Br-] (centres unmarked) [EXAMPLE P344]	–	<1%	<1%	–
0.023 µM	CCCCC1(CCCC)CS(=O)(=O)c2ccc(N(C)C)cc2C(c2cccc(NC(=S)Nc3ccc(C[N+]45CCC(c6ccccc6)(CC4)CC5)c(Cl)c3)c2)N1.[Br-] (centres unmarked) [EXAMPLE P345]	–	<1%	<1%	–
0.024 µM	CCCCC1(CCCC)CS(=O)(=O)c2ccc(N(C)C)cc2C(c2cccc(NC(=S)Nc3ccc(C[N+]45CCC(c6ccccc6)(CC4)CC5)c(Br)c3)c2)N1.[Br-] (centres unmarked) [EXAMPLE P347]	–	<1%	<1%	–
0.022 µM	CCCCC1(CCCC)CS(=O)(=O)c2ccc(N(C)C)cc2C(c2cccc(NC(=S)Nc3ccc(C[N+]45CCC(c6ccccc6)(CC4)CC5)c(C(F)(F)F)c3)c2)N1.[Br-] (centres unmarked) [EXAMPLE P348]	–	<1%	<1%	–
0.026 µM	CCCCC1(CCCC)CS(=O)(=O)c2ccc(N(C)C)cc2C(c2cccc(NC(=S)Nc3ccc(C[n+]4ccc(-c5ccccc5)cc4)c(Br)c3)c2)N1 (centres unmarked) [EXAMPLE P383]	–	–	–	–
0.032 µM	CCCCC1(CCCC)CS(=O)(=O)c2ccc(N(C)C)cc2C(c2cccc(NC(=S)Nc3ccc(C[n+]4ccc(-c5ccccc5)cc4)c(C(F)(F)F)c3)c2)N1 (centres unmarked) [EXAMPLE P384]	–	–	–	–
0.056 µM	CCCCC1(CCCC)CS(=O)(=O)c2ccc(N(C)C)cc2C(c2cccc(NC(=S)Nc3ccc(C[n+]4ccc(-c5ccccc5)cc4)c([N+](=O)[O-])c3)c2)N1 (centres unmarked) [EXAMPLE P385]	–	–	–	–
0.06 µM	CCCCC1(CCCC)CS(=O)(=O)c2ccc(N(C)C)cc2C(c2cccc(NC(=S)Nc3c(C)cc(C[n+]4ccc(-c5ccccc5)cc4)cc3C)c2)N1 (centres unmarked) [EXAMPLE P386]	–	–	–	–
0.028 µM	CCCCC1(CCCC)CS(=O)(=O)c2ccc(N(C)C)cc2C(c2cccc(NC(=S)Nc3ccc(C[N+]45CCC(c6ccccc6)(CC4)CC5)cc3F)c2)N1 (centres unmarked) [Example P316, 1-(4-{3-[3-(3,3-dibutyl-7-dimethylamino-1,1-dioxo-2,3,4,5-tetrahydro-1,4-benzothiazepine-5-yl)phenyl]thioureido}-3-fluorobenzyl)-4-phenyl-1-azoniabicyclo[2.2.2]octane bromide]	–	–	–	–
